From BindingDB's records for doi:10.1016/j.bmcl.2008.01.016 (Merck Research Laboratories, 2008) come the findings set out here.

A word on the IC50: it is the concentration at which inhibition is half-maximal.

The experiment is described as follows: Antagonist activity at human CCR2 assessed as inhibition of MCP1-induced monocyte chemotaxis.

Regarding `C[C@H]1CN([C@@H]2CC[C@@]3(CCO[C@H]3OCc3cc(F)cc(C(F)(F)F)c3)C2)CC[C@@]12C=Cc1ccccc12`, the IC50 was 2.5 nM.
